“Also recorded” adds a separate entry of the source.
What was measured:
[1] = tested on: γδ T cells; conditions: stimulated with anti-CD28 antibody and cytokine cocktail of IL-23 and IL-1; cited from earlier work
[2] = tested on: γδ T cells; assay: IL-17A/F in supernatants of stimulated cultured γδ T cells (ELISA); type: cell-based, mouse; conditions: for effect on IL-17A/F cytokine concentration in supernatants: C57BL/6 spleen γδ T cells, anti-CD3/CD28 beads plus recombinant IL-23, 10 and 100 nM (FIG. 12); for suppressive effect on supernatant IL-17 concentration: bead+IL-23 stimulated, 100 nM 9-cis RA, 96 hours
Procedure: (§1) Pooled γ/δ T17 cells from the spleens of 8-10 week old B6 and Pinkie mice were isolated using the TCR γ/δ T cells Isolation Kit according to the manufacturer's instruction (Miltenyi Biotec, Bergisch Gladbach, Germany). To determine the effect of 9CisRA and monocytes conditional media on IL17 cytokine production, the purified γδ T17 cells were stimulated with anti-CD3/CD28 Dynabeads (Catalog #11452D, Life Technologies AS, Norway) alone or in combination with IL-23 (10 ng/ml, eBioscience), 9-cisRA (100 nM) or monocyte conditioned media for 96 hours for cytokine measurement.
(§2) Mouse IL17 was measured from cell cultured supernatant after 96 hours incubation using a mouse IL-17 DuoSet Enzyme-linked immunosorbent assay (ELISA) (R&D systems, Minneapolis, USA)

[3] = tested on: monocytes; assay: Nanostring myeloid innate immunity array of LPS-stimulated cultured monocytes; type: cell-based, mouse; conditions: 100 nM 9-cis RA added to culture media
Procedure: (§3) Monocytes were purified from 3 days cultured mouse bone marrow cells using the monocytes isolation kit, according to the manufacturer's instruction (BM, Miltenyi Biotec, Bergisch Gladbach, Germany). 5×10^5 monocytes plated in a 48 well plate were preincubated with 100 nM 9-cisRA for 1 hour followed by stimulation with 0.5 μg/ml LPS for 4 hours for RNA or overnight for cytokines. The total RNA was extracted using an RNeasy® Plus Mimi Kit (Cat No. 74134, QIAGEN GmbH, Hilden, Germany) according to manufacturer's instruction. The RNA and collected supernatants were stored at −80° C. until further use.
This was performed by the Genomic and RNA Profiling Core at Baylor College of Medicine using the NanoString Technologies nCounter Gene Expression Mouse Myeloid Innate Immunity V2 Panel codeset (NS_MM_Myeloid_V2.0) containing 770 unique pairs of 35-50 bp reporter probes and biotin-labeled capture probes, including internal reference controls (NanoString, Seattle, WA) as previously described. (Alam et al., 2021a). Data was analyzed by ROSALIND® (https://rosalind.bio/), with a HyperScale architecture developed by ROSALIND, Inc. (San Diego, CA).

[4] = tested on: monocytes; assay: Stimulatory activity of conditioned media from LPS-treated monocytes on IL-17 production by γδ T cells; type: cell-based, mouse; conditions: LPS-stimulated cultured monocytes treated with 100 nM 9-cisRA
Procedure: as §3, §1, §2

[5] = tested on: monocytes; conditions: 9-cis RA treated monocytes; cited from earlier work

CC1(C)CCC(C)(C)c2cc(NC(=O)c3ccc(C(=O)O)cc3)ccc21 [AM80]
IL-17 production by γδ T cells [1]: suppress

C=C(c1ccc(C(=O)O)cc1)c1cc2c(cc1C)C(C)(C)CCC2(C)C [Bexarotene]
effect on IL-17A/F cytokine concentration in supernatants [2]: suppressive effects

CC1=C(/C=C/C(C)=C/C=C/C(C)=C/C(=O)O)C(C)(C)CCC1 [all trans retinoic acid]
effect on IL-17A/F cytokine concentration in supernatants [2]: suppressive activity

C=CCc1ccc(O)c(-c2ccc(O)c(CC=C)c2)c1 [honokiol]
effect on IL-17A/F cytokine concentration in supernatants [2]: suppressive effects

CN1c2ccc([N+](=O)[O-])cc2N=C(c2ccc(C(=O)O)cc2)c2cc3c(cc21)C(C)(C)CCC3(C)C [HX531]
effect on suppressive activity of the RAR agonist ATRA on IL-17A/F ([2]; C57BL/6 γδ T cells, anti-CD3/CD28 beads plus IL-23 (FIG. 12)): did not have any effect
effect on the suppressive effects of RXRα agonists on IL-17A/F ([2]; C57BL/6 γδ T cells, anti-CD3/CD28 beads plus IL-23, with 9-cisRA, Bexarotene, DHA, oleic acid, honokiol (FIG. 12)): blocked

CC/C=C\C/C=C\C/C=C\C/C=C\C/C=C\C/C=C\CCC(=O)O [DHA, omega-3 docosahexaenoic acid]
effect on IL-17A/F cytokine concentration in supernatants [2]: suppressive effects

CC1=C(/C=C/C(C)=C\C=C\C(C)=C\C(=O)O)C(C)(C)CCC1 [9-cis RA, 9-cis retinoic acid]
expression of γδT17 inducing cytokines (Il23a, Il12b, Il1α, Il1β, Tnf-α) [3]: suppressed; also recorded: reduced
expression of γδT17 inducing cytokines (Il23a, Il12b, Il1α, Il1β, Tnf-α) ([3]; listed as 9-cisRA): suppresses
stimulatory activity of monocyte conditioned media on γδ T cell IL-17 production [4]: suppresses; also recorded: significantly reduced
stimulatory activity of monocyte conditioned media on γδ T cell IL-17 production ([4]; listed as 9-cisRA): significantly reduced
levels of IL-1β and IL-23β in supernatants [5]: reduced levels
suppressive effect on supernatant IL-17 concentration ([2]; B6 γδ T cells): 74%
effect on IL-17A/F cytokine concentration in supernatants [2]: suppressive effects
suppressive effect on supernatant IL-17 concentration ([2]; Pinkie γδ T cells): 46%
suppression of IL-17 production ([2]; cultured γδ T cells stimulated by CD28 beads or beads plus IL-23): > 70%
supernatant IL-17 concentration ([2]; stimulated γδ T cells from both strains (B6 and Pinkie), 100 nM): suppresses; also recorded: significantly reduced

CCCCCCCC/C=C\CCCCCCCC(=O)O [oleic acid]
effect on IL-17A/F cytokine concentration in supernatants [2]: suppressive effects

— US20250073194A1, “RXR AGONISTS IN EYE DISORDERS” (Baylor College of Medicine, priority 2022, published 2025)
